In patent publication US8026257B2 (Bristol-Myers Squibb Company, priority 2007, dated 2011):
Where two headings read alike, the source gives them in different places.

Columns and labels:
NK-1 = biological target: T1, NK-1 (Homo sapiens, UniProt P25103); experiment: NK1 radioligand binding assay ([125I]Substance P, U373 membranes); conditions: U373 cell membranes, 200 pM [125I]Substance P, 1 hour at room temperature
T1 construct: 30 ul/well of a 2×U373 membrane preparation
Procedure, shortened: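 U373 cell membranes incubated 1 h at room temperature with [125I]Substance P at its Kd (added as 400 pM 2× solution) in Tris-Cl pH 7.5 with MgCl2, BSA, bacitracin and protease inhibitors. Bound radioligand collected on PEI-treated GF/B filters and counted. IC50 from four-parameter fit of triplicates; L-733,060 defined 100% inhibition.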

hSERT = hSERT (Homo sapiens, UniProt P31645); experiment: SERT radioligand binding assay ([125I]RTI-55, HEK-hSERT membranes); conditions: HEK-293 hSERT membranes, 260 pM [125I]RTI-55, 1 hour at room temperature
Procedure, shortened: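 Crude membranes from HEK-293 cells expressing hSERT (15 ug/ml, 2× stock) were incubated 1 hour at room temperature with [125I]RTI-55 (520 pM, 2× stock; at Kd) in pH 7.5 Tris, 120 mM NaCl, 5 mM KCl. Bound ligand was collected by GF/B filtration and scintillation counted. IC50 came from four-parameter fit, fluoxetine defining 100% inhibition.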

Sequence of hSERT (P31645 whole entry): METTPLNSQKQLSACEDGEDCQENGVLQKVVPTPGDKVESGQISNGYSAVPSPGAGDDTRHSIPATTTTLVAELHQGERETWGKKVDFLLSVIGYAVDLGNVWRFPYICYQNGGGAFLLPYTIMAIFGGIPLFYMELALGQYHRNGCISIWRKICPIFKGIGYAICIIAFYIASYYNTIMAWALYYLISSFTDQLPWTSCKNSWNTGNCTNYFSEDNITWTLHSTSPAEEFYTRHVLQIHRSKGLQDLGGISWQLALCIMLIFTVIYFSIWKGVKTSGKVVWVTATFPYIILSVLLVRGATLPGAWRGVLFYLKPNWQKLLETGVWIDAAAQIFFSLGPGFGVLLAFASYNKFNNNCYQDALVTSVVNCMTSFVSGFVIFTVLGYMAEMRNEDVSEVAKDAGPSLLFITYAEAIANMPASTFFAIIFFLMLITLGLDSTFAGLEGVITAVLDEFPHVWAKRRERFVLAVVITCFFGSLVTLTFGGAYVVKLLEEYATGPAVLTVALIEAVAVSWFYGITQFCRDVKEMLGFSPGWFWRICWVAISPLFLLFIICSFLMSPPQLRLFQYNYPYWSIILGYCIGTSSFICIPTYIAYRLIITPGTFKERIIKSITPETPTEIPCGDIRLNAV
T1 sequence (P25103 whole entry): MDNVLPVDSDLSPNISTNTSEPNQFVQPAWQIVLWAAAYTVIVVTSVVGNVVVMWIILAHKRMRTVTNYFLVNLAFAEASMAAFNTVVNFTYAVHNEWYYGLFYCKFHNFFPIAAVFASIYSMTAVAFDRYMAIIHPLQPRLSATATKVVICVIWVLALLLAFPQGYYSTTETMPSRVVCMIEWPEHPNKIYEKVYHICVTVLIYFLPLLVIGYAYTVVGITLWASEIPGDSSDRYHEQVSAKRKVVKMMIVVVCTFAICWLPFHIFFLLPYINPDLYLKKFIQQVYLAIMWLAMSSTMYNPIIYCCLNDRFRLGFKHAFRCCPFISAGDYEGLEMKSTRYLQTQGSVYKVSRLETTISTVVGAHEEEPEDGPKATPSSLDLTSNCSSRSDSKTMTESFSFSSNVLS

## Cn1cc2cc(C(F)(F)F)cc(COCC3(c4ccccc4)CCNCC3)c2n1 [Example 12, 2-Methyl-7-(((4-phenylpiperidin-4-yl)methoxy)methyl)-5-(trifluoromethyl)-2H-indazole]
NK-1
  IC50: 0.01 to 100 nM
hSERT; read-out: SERT IC50
  IC50: 0.01 to 100 nM

## CN1CCC(COCc2cc(C(F)(F)F)cc3cnn(C)c23)(c2ccccc2)CC1 [Example 13, 1-Methyl-7-(((1-methyl-4-phenylpiperidin-4-yl)methoxy)methyl)-5-(trifluoromethyl)-1H-indazole]
NK-1
  IC50: 0.01 to 100 nM
hSERT; read-out: SERT IC50
  IC50: 0.01 to 100 nM

## CN1CCC(COCc2cc(C(F)(F)F)cc3cn(C)nc23)(c2ccccc2)CC1 [Example 14, 2-Methyl-7-(((1-methyl-4-phenylpiperidin-4-yl)methoxy)methyl)-5-(trifluoromethyl)-2H-indazole]
NK-1
  IC50: 0.01 to 100 nM
hSERT; read-out: SERT IC50
  IC50: 0.01 to 100 nM

## Fc1ccc(C2(COCc3cc(C(F)(F)F)cc4cn[nH]c34)CCNCC2)cc1 [Example 15, 7-(((4-(4-Fluorophenyl)piperidin-4-yl)methoxy)methyl)-5-(trifluoromethyl)-1H-indazole]
NK-1
  IC50: 0.01 to 100 nM
hSERT; read-out: SERT IC50
  IC50: 0.01 to 100 nM

## CN1CCC(COCc2cc(C(F)(F)F)cc3cn[nH]c23)(c2ccc(F)cc2)CC1 [Example 16, 7-(((4-(4-Fluorophenyl)-1-methylpiperidin-4-yl)methoxy)methyl)-5-(trifluoromethyl)-1H-indazole]
NK-1
  IC50: 0.01 to 100 nM
hSERT; read-out: SERT IC50
  IC50: 0.01 to 100 nM

## Cn1ncc2cc(C(F)(F)F)cc(COCC3(c4ccc(F)cc4)CCNCC3)c21 [Example 17, 7-(((4-(4-Fluorophenyl)piperidin-4-yl)methoxy)methyl)-1-methyl-5-(trifluoromethyl)-1H-indazole]
NK-1
  IC50: 0.01 to 100 nM
hSERT; read-out: SERT IC50
  IC50: 0.01 to 100 nM

## Cn1cc2cc(C(F)(F)F)cc(COCC3(c4ccc(F)cc4)CCNCC3)c2n1 [Example 18, 7-(((4-(4-Fluorophenyl)piperidin-4-yl)methoxy)methyl)-2-methyl-5-(trifluoromethyl)-2H-indazole]
NK-1
  IC50: 0.01 to 100 nM
hSERT; read-out: SERT IC50
  IC50: 0.01 to 100 nM

## CN1CCC(COCc2cc(C(F)(F)F)cc3cnn(C)c23)(c2ccc(F)cc2)CC1 [Example 19, 7-(((4-(4-Fluorophenyl)-1-methylpiperidin-4-yl)methoxy)methyl)-1-methyl-5-(trifluoromethyl)-1H-indazole]
NK-1
  IC50: 0.01 to 100 nM
hSERT; read-out: SERT IC50
  IC50: 0.01 to 100 nM

## c1ccc(C2(COCc3cccc4cn[nH]c34)CCNCC2)cc1 [Example 34, 7-(((4-Phenylpiperidin-4-yl)methoxy)methyl)-1H-indazole]
NK-1
  IC50: 100 to 300 nM
hSERT; read-out: SERT IC50
  IC50: 0.01 to 100 nM

## FC(F)(F)c1cc(COCC2(c3ccccc3)CCNCC2)c2[nH]nc(C3CC3)c2c1 [Example 35, 3-Cyclopropyl-7-(((4-phenylpiperidin-4-yl)methoxy)methyl)-5-(trifluoromethyl)-1H-indazole]
NK-1
  IC50: 0.01 to 100 nM
hSERT; read-out: SERT IC50
  IC50: 0.01 to 100 nM

## FC(F)(F)c1cc(COCC2(c3ccccc3)CCNCC2)c2[nH]nc(Br)c2c1 [Example 36, 3-Bromo-7-(((4-phenylpiperidin-4-yl)methoxy)methyl)-5-(trifluoromethyl)-1H-indazole]
NK-1
  IC50: 0.01 to 100 nM
hSERT; read-out: SERT IC50
  IC50: 0.01 to 100 nM

## Cc1n[nH]c2c(COCC3(c4ccccc4)CCNCC3)cc(C(F)(F)F)cc12 [Example 37, 3-Methyl-7-(((4-phenylpiperidin-4-yl)methoxy)methyl)-5-(trifluoromethyl)-1H-indazole]
NK-1
  IC50: 0.01 to 100 nM
hSERT; read-out: SERT IC50
  IC50: 0.01 to 100 nM

## c1ccc(C2(COCc3cc(C4CC4)cc4cn[nH]c34)CCNCC2)cc1 [Example 45, 5-Cyclopropyl-7-(((4-phenylpiperidin-4-yl)methoxy)methyl)-1H-indazole]
NK-1
  IC50: 0.01 to 100 nM
hSERT; read-out: SERT IC50
  IC50: 0.01 to 100 nM

## CC(OCC1(c2ccc(F)cc2)CCN(C)CC1)c1cc(N(C)C)cc2cn[nH]c12 (centres unmarked) [Example 51, 7-(1-((4-(4-Fluorophenyl)-1-methylpiperidin-4-yl)methoxy)ethyl)-N,N-dimethyl-1H-indazol-5-amine]
NK-1
  IC50: 0.01 to 100 nM
hSERT; read-out: SERT IC50
  IC50: 0.01 to 100 nM

## CN1CCC(COCc2cc(-c3ccc(C#N)cc3)cc3cnn(C4CC4)c23)(c2ccccc2)CC1 [Example 65, 4-(1-Cyclopropyl-7-(((1-methyl-4-phenylpiperidin-4-yl)methoxy)methyl)-1H-indazol-5-yl)benzonitrile]
NK-1
  IC50: 100 to 300 nM
hSERT; SERT IC50 (nM)
  IC50: 0.01 to 100 nM

## CN1CCC(COCc2cc(C(F)(F)F)cc3cc[nH]c23)(c2ccccc2)CC1 [Example 66, 7-(((1-Methyl-4-phenylpiperidin-4-yl)methoxy)methyl)-5-(trifluoromethyl)-1H-indole]
NK-1
  IC50: 0.01 to 100 nM
hSERT; read-out: SERT IC50
  IC50: 0.01 to 100 nM

## CN1CCC(COCc2cc(C(F)(F)F)cc3ccn(C)c23)(c2ccccc2)CC1 [Example 67, 1-Methyl-7-(((1-methyl-4-phenylpiperidin-4-yl)methoxy)methyl)-5-(trifluoromethyl)-1H-indole]
NK-1
  IC50: 0.01 to 100 nM
hSERT; read-out: SERT IC50
  IC50: 0.01 to 100 nM

## CN1CCC(COCc2cc(C(F)(F)F)cc3cc[nH]c23)(c2ccc(F)cc2)CC1 [Example 68, 7-(((1-Methyl-4-(4-fluorophenyl)piperidin-4-yl)methoxy)methyl)-5-(trifluoromethyl)-1H-indole]
NK-1
  IC50: 0.01 to 100 nM
hSERT; read-out: SERT IC50
  IC50: 0.01 to 100 nM

## CN1CCC(COCc2cc(C(F)(F)F)cc3ccn(C)c23)(c2ccc(F)cc2)CC1 [Example 69, 1-Methyl-7-(((1-methyl-4-(4-fluorophenyl)piperidin-4-yl)methoxy)methyl)-5-(trifluoromethyl)-1H-indole]
NK-1
  IC50: 0.01 to 100 nM
hSERT; read-out: SERT IC50
  IC50: 0.01 to 100 nM

## CN1CCC(COCc2cc(C(F)(F)F)cc3[nH]ccc23)(c2ccccc2)CC1 [Example 76, 4-(((1-Methyl-4-phenylpiperidin-4-yl)methoxy)methyl)-6-(trifluoromethyl)-1H-indole 2,2,2-trifluoroacetate]
NK-1
  IC50: 0.01 to 100 nM
hSERT; read-out: SERT IC50
  IC50: 0.01 to 100 nM

## CN1CCC(COCc2cc(C(F)(F)F)cc3c2ccn3C)(c2ccccc2)CC1 [Example 77, 1-Methyl-4-(((1-methyl-4-phenylpiperidin-4-yl)methoxy)methyl)-6-(trifluoromethyl)-1H-indole 2,2,2-trifluoroacetate]
NK-1
  IC50: 0.01 to 100 nM
hSERT; read-out: SERT IC50
  IC50: 0.01 to 100 nM

## CN1CCC(COCc2cc(C(F)(F)F)cc3nnn(C)c23)(c2ccc(F)cc2)CC1 [Example 78, 7-(((4-(4-Fluorophenyl)-1-methylpiperidin-4-yl)methoxy)methyl)-1-methyl-5-(trifluoromethyl)-1H-benzo[d][1,2,3]triazole]
NK-1
  IC50: 100 to 300 nM
hSERT; read-out: SERT IC50
  IC50: 0.01 to 100 nM

## CN1CCC(COCc2cc(C(F)(F)F)cc3nn(C)nc23)(c2ccc(F)cc2)CC1 [Example 79, 4-(((4-(4-Fluorophenyl)-1-methylpiperidin-4-yl)methoxy)methyl)-2-methyl-6-(trifluoromethyl)-2H-benzo[d][1,2,3]triazole]
NK-1
  IC50: 0.01 to 100 nM
hSERT; read-out: SERT IC50
  IC50: 0.01 to 100 nM

## CN1CCC(COCc2cc(C(F)(F)F)cc3c2nnn3C)(c2ccc(F)cc2)CC1 [Example 80, 4-(((4-(4-Fluorophenyl)-1-methylpiperidin-4-yl)methoxy)methyl)-1-methyl-6-(trifluoromethyl)-1H-benzo[d][1,2,3]triazole]
NK-1
  IC50: 100 to 300 nM
hSERT; read-out: SERT IC50
  IC50: 0.01 to 100 nM

## CN1CCC(COCc2nc3cc(-c4ccc(C#N)cc4)ccc3n2CC2CC2)(c2ccccc2)CC1 [Example 81, 4-(1-(Cyclopropylmethyl)-2-(((1-methyl-4-phenylpiperidin-4-yl)methoxy)methyl)-1H-benzo[d]imidazol-5-yl)benzonitrile]
NK-1
  IC50: > 300 nM
hSERT; read-out: SERT IC50
  IC50: 0.01 to 100 nM

## CN1CCC(COCc2nc3cc(Br)ccc3n2CC2CC2)(c2ccccc2)CC1 [Example 82, 5-Bromo-1-(cyclopropylmethyl)-2-(((1-methyl-4-phenylpiperidin-4-yl)methoxy)methyl)-1H-benzo[d]imidazole]
NK-1
  IC50: > 300 nM
hSERT; read-out: SERT IC50
  IC50: 0.01 to 100 nM

## CN1CCC(COCc2nc3ccc(Br)cc3n2CC2CC2)(c2ccccc2)CC1 [Example 83, 6-Bromo-1-(cyclopropylmethyl)-2-(((1-methyl-4-phenylpiperidin-4-yl)methoxy)methyl)-1H-benzo[d]imidazole]
NK-1
  IC50: > 300 nM
hSERT; read-out: SERT IC50
  IC50: 0.01 to 100 nM

## CN1CCC(COCc2nc3cc(-c4ccc(Cl)cc4Cl)ccc3n2CC2CC2)(c2ccccc2)CC1 [Example 84, 1-(Cyclopropylmethyl)-5-(2,4-dichlorophenyl)-2-(((1-methyl-4-phenylpiperidin-4-yl)methoxy)methyl)-1H-benzo[d]imidazole]
NK-1
  IC50: > 300 nM
hSERT; read-out: SERT IC50
  IC50: 0.01 to 100 nM

## CN1CCC(COCc2nc3ccc(C4CC4)cc3n2CC2CC2)(c2ccccc2)CC1 [Example 85, 6-Cyclopropyl-1-(cyclopropylmethyl)-2-(((1-methyl-4-phenylpiperidin-4-yl)methoxy)methyl)-1H-benzo[d]imidazole]
NK-1
  IC50: > 300 nM
hSERT; read-out: SERT IC50
  IC50: 0.01 to 100 nM

## CN1CCC(COCc2nc3cc(C(F)(F)F)ccc3n2CC2CC2)(c2ccccc2)CC1 [Example 86, 1-(Cyclopropylmethyl)-2-(((1-methyl-4-phenylpiperidin-4-yl)methoxy)methyl)-5-(trifluoromethyl)-1H-benzo[d]imidazole]
NK-1
  IC50: > 300 nM
hSERT; read-out: SERT IC50
  IC50: 0.01 to 100 nM

## CN1CCC(COCc2nc3ccc(C(F)(F)F)cc3n2CC2CC2)(c2ccccc2)CC1 [Example 87, 1-(Cyclopropylmethyl)-2-(((1-methyl-4-phenylpiperidin-4-yl)methoxy)methyl)-6-(trifluoromethyl)-1H-benzo[d]imidazole]
NK-1
  IC50: > 300 nM
hSERT; read-out: SERT IC50
  IC50: 0.01 to 100 nM
